# Experimental data: US5412095A, “Terazosin monohydrochloride and processes and intermediate for its production” (Abbott Laboratories, priority 1994, dated 1995)
# Structures can show the parent of a compound that is named as a salt. Where two headings read alike, the source gives them in different places.
# What was measured:
# [1] = Solubility/dissolution of forms of terazosin monohydrochloride in distilled water (shaken, 0.45 µm filtered, UV at 254 nm); assay type: physicochemical; details: for Solubility of Various Forms of Terazosin Monohydrochloride / solubility at 0.5 min / solubility at 1 min / solubility at 2 min / solubility at 4 min: distilled water, 2 g in 5 mL; for dissolution in water (in words): qualitative; for solubility at 0.5 min / solubility at 1 min / solubility at 2 min / solubility at 4 min: read-out: Solubility of Various Forms of Terazosin Monohydrochloride
# Method: The data in Table 1 were collected, for each data point, by weighing 2 g samples of terazosin monohydrochloride dihydrate and each of Forms I, II and II of the non-solvated monohydrochloride separately into 50 mL centrifuge tubes. Five mL of distilled water were added to each tube and the tubes shaken for the times indicated and then rapidly filtered through a 0.45 μu nylon membrane filter. The resulting flitrates were serially diluted with water 2 to […], 5 to 50, 5 to 50 and 5 to 100 mL and the ultraviolet absorption maximum at 254 nm measured. The concentrations of the dissolved terazosin were then calculated from the absorption data using dam from a series of standard concentrations.
# [2] = Acidic cleavage of terazosin in aqueous acid; assay type: physicochemical; details: aqueous medium, cleaves into 4-amino-6,7-dimethoxy-2-piperazinylquinazoline and 2-furoic acid
# Method: In the particular case of terazosin, when the parent compound or its hydrochloride salt is in contact for extended periods with aqueous acid, it undergoes an undesirable side reaction which cleaves the compound into its constituent parts: [drawing 2]
# Moreover, if the hydrochloride salt is prepared by lyophilization of the reaction mixture of terazosin free base and hydrochloric acid, unless care is taken to remove any excess acid present in the isolated salt, the solid may also contain small amounts of acid which causes degradative cleavage over time.
# [3] = free base form; cited from earlier work
compound,measurement,setting,value
"COc1cc2nc(N3CCN(C(=O)C4CCCO4)CC3)nc(N)c2cc1OC (stereo not shown) [Form III, 1-(4-amino-6,7-dimethoxy-2-quinazolinyl)-4-(tetrahydro-2-furoyl)piperazinemonohydrochloride]",Solubility of Various Forms of Terazosin Monohydrochloride,[1]; 0.5 minutes,235 mg/mL
same,Solubility of Various Forms of Terazosin Monohydrochloride,"[1]; 1 minute, 1 min",237 mg/mL
same,Solubility of Various Forms of Terazosin Monohydrochloride,[1]; 2 minutes,269 mg/mL
same,Solubility of Various Forms of Terazosin Monohydrochloride,[1]; 4 minutes,261 mg/mL
same,solubility rapidly achieved relative to the dihydrate limit (about 30 mg/mL),"[1]; water, multiple of dihydrate solubility",about ten times
same,dissolution in water (in words),[1]; water,rapidly dissolves in water
same,dissolution in water (in words),"[1]; water, listed as terazosin monohydrochloride Form III",dissolves in water much more rapidly than the dihydrate form
"COc1cc2nc(N3CCN(C(=O)C4CCCO4)CC3)nc(N)c2cc1OC (stereo not shown) [Form I, 1-(4-amino-6,7-dimethoxy-2-quinazolinyl)-4-(tetrahydro-2-furoyl)piperazinemonohydrochloride]",solubility at 0.5 min,"[1]; water, 0.5 minutes",273 mg/mL
same,solubility at 1 min,"[1]; water, 1 minute",283 mg/mL
same,solubility at 2 min,"[1]; water, 2 minutes",289 mg/mL
same,solubility at 4 min,"[1]; water, 4 minutes",276 mg/mL
"COc1cc2nc(N3CCN(C(=O)C4CCCO4)CC3)nc(N)c2cc1OC.Cl.O.O (stereo not shown) [Dihydrate, 1-(4-Amino-6,7-dimethoxy-2-quinazolinyl)-4-(tetrahydro-2-furoyl)piperazine monohydrochloride dihydrate]",solubility at 0.5 min,[1]; 0.5 minutes,29 mg/mL
same,solubility at 1 min,[1]; 1 minute,30 mg/mL
same,solubility at 2 min,[1]; 2 minutes,27 mg/mL
same,solubility at 4 min,[1]; 4 minutes,26 mg/mL
same,solubility,"[1]; water, rapidly reached, read-out: limit of solubility",~30 mg/mL
"COc1cc2nc(N3CCN(C(=O)C4CCCO4)CC3)nc(N)c2cc1OC (stereo not shown) [terazosin, 1-(4-amino-6,7-dimethoxy-2-quinazolinyl)-4-(tetrahydro-2furoyl)piperazine]",acidic cleavage (stability),[2],occurs rapidly in aqueous medium
same,solubility for oral administration (in words),[3],does not possess the requisite solubility for convenient oral administration
"COc1cc2nc(N3CCN(C(=O)C4CCCO4)CC3)nc(N)c2cc1OC (stereo not shown) [Form II, 1-(4-amino-6,7-dimethoxy-2-quinazolinyl)-4-(tetrahydro-2-furoyl)piperazinemonohydrochloride]",Solubility of Various Forms of Terazosin Monohydrochloride,[1]; 0.5 minutes,280 mg/mL
same,Solubility of Various Forms of Terazosin Monohydrochloride,"[1]; 1 minute, 1 min",253 mg/mL
same,Solubility of Various Forms of Terazosin Monohydrochloride,[1]; 2 minutes,311 mg/mL
same,Solubility of Various Forms of Terazosin Monohydrochloride,[1]; 4 minutes,323 mg/mL
